Results: the NIST ThermoML archive (doi:10.1016/j.jct.2017.03.026)
Values joined by “and” are separate entries in the source; they are usually repeats but may differ in a detail not shown here. Equal values may be shown once.

Assay: molar heat capacity at constant pressure
Conditions: 101.33 kPa, Crystal, Small (less than 1 g) adiabatic calorimetry

O.O.O.O.O.O=S(=O)([O-])[O-].[Cu+2] [copper(II) sulfate pentahydrate]
Conditions | molar heat capacity at constant pressure
287.75 K | 289.04 J/K/mol
287.82 K | 289.61 J/K/mol
288.14 K | 289.34 J/K/mol
288.18 K | 290.46 J/K/mol
288.42 K | 289.31 J/K/mol
288.47 K | 290.31 J/K/mol
288.59 K | 291.83 J/K/mol
288.8 K | 291.86 J/K/mol
289.09 K | 290.24 J/K/mol
289.13 K | 293.01 J/K/mol
289.48 K | 297.45 J/K/mol
289.75 K | 292.88 J/K/mol
289.76 K | 282.28 J/K/mol and 282.25 J/K/mol and 292.61 J/K/mol
289.83 K | 290.48 J/K/mol
290 K | 282.3 J/K/mol
290.23 K | 291.98 J/K/mol
290.44 K | 291.33 J/K/mol
290.57 K | 288.74 J/K/mol
290.91 K | 292.31 J/K/mol and 292.23 J/K/mol
291.11 K | 292.78 J/K/mol and 291.01 J/K/mol
291.26 K | 298.2 J/K/mol
291.62 K | 292.93 J/K/mol
291.78 K | 291.86 J/K/mol
291.96 K | 292.13 J/K/mol
292.07 K | 282.87 J/K/mol
292.1 K | 293.31 J/K/mol
292.31 K | 293.26 J/K/mol
292.46 K | 294.11 J/K/mol
292.51 K | 284.12 J/K/mol
292.65 K | 291.23 J/K/mol
292.99 K | 292.66 J/K/mol
293.15 K | 293.46 J/K/mol
293.27 K | 294.35 J/K/mol
293.33 K | 294.9 J/K/mol
293.67 K | 295.88 J/K/mol
293.82 K | 293.83 J/K/mol
294.03 K | 294.9 J/K/mol and 295.65 J/K/mol
294.37 K | 295.73 J/K/mol
294.44 K | 295.25 J/K/mol
294.48 K | 285.79 J/K/mol
294.5 K | 295.03 J/K/mol
294.72 K | 294.11 J/K/mol
295.06 K | 293.36 J/K/mol
295.25 K | 295.78 J/K/mol
295.26 K | 286 J/K/mol
295.4 K | 295.15 J/K/mol
295.61 K | 296.03 J/K/mol
295.81 K | 299.05 J/K/mol
295.94 K | 296.5 J/K/mol
296.17 K | 298.85 J/K/mol
296.52 K | 298.75 J/K/mol
296.64 K | 295.93 J/K/mol
296.79 K | 296.15 J/K/mol
296.84 K | 287.36 J/K/mol
296.88 K | 296.35 J/K/mol
296.93 K | 297 J/K/mol
297.22 K | 297.15 J/K/mol
297.32 K | 296.23 J/K/mol
297.57 K | 297.23 J/K/mol
297.91 K | 299.05 J/K/mol
297.94 K | 297.85 J/K/mol
298 K | 296.85 J/K/mol
298.02 K | 287.88 J/K/mol
298.15 K | 288 J/K/mol
298.25 K | 298.42 J/K/mol
298.59 K | 299.17 J/K/mol
298.68 K | 299.05 J/K/mol
298.94 K | 299.4 J/K/mol
299.12 K | 298.65 J/K/mol
299.23 K | 288.76 J/K/mol
299.29 K | 300.47 J/K/mol
299.37 K | 298.15 J/K/mol
299.64 K | 299.5 J/K/mol
299.82 K | 299.2 J/K/mol
300 K | 289.3 J/K/mol
300.06 K | 299.2 J/K/mol
300.3 K | 299.45 J/K/mol
300.75 K | 298.85 J/K/mol
300.77 K | 289.98 J/K/mol
301.44 K | 299.02 J/K/mol
301.47 K | 300.17 J/K/mol
301.59 K | 289.49 J/K/mol
302.12 K | 300.57 J/K/mol
302.65 K | 301.05 J/K/mol
302.7 K | 301.5 J/K/mol
302.82 K | 300.42 J/K/mol
303.5 K | 300.72 J/K/mol
303.53 K | 291.77 J/K/mol
303.83 K | 301.92 J/K/mol
303.92 K | 292.06 J/K/mol
304.18 K | 301.47 J/K/mol
304.87 K | 301.52 J/K/mol
305.01 K | 302.77 J/K/mol
305.55 K | 302.32 J/K/mol
305.56 K | 303.47 J/K/mol
306.19 K | 303.64 J/K/mol
306.28 K | 293.59 J/K/mol
306.3 K | 293.93 J/K/mol and 304.42 J/K/mol
306.99 K | 304.54 J/K/mol
307.44 K | 304.69 J/K/mol
307.7 K | 304.19 J/K/mol
308.38 K | 304.52 J/K/mol
308.41 K | 305.57 J/K/mol
308.62 K | 305.54 J/K/mol
308.68 K | 295.75 J/K/mol
309.04 K | 295.5 J/K/mol
309.07 K | 305.39 J/K/mol
309.75 K | 305.67 J/K/mol
309.8 K | 305.39 J/K/mol
310 K | 296 J/K/mol
310.43 K | 305.52 J/K/mol
310.97 K | 306.74 J/K/mol
311.08 K | 296.13 J/K/mol
311.11 K | 306.24 J/K/mol
311.25 K | 307.59 J/K/mol
311.79 K | 306.69 J/K/mol
311.8 K | 297.26 J/K/mol
312.15 K | 307.81 J/K/mol
312.47 K | 307.31 J/K/mol
313.16 K | 307.84 J/K/mol
313.33 K | 308.96 J/K/mol
313.44 K | 298.8 J/K/mol
313.84 K | 308.56 J/K/mol
314.07 K | 309.84 J/K/mol
314.51 K | 309.76 J/K/mol
314.52 K | 309.11 J/K/mol
314.56 K | 298.99 J/K/mol
315.19 K | 310.48 J/K/mol
315.69 K | 310.88 J/K/mol
315.85 K | 300.25 J/K/mol
315.89 K | 310.18 J/K/mol
316.57 K | 310.56 J/K/mol
316.88 K | 312.41 J/K/mol and 311.61 J/K/mol
317.31 K | 309.31 J/K/mol
317.53 K | 300.52 J/K/mol
317.99 K | 311.11 J/K/mol
318.06 K | 312.53 J/K/mol
318.28 K | 301.47 J/K/mol
318.66 K | 311.58 J/K/mol
319.25 K | 313.46 J/K/mol
319.34 K | 313.53 J/K/mol
319.69 K | 314.25 J/K/mol
320 K | 302.2 J/K/mol
320.02 K | 313.28 J/K/mol
320.3 K | 302.56 J/K/mol
320.43 K | 313.61 J/K/mol
320.7 K | 312.78 J/K/mol
320.71 K | 302.82 J/K/mol
321.37 K | 314.2 J/K/mol
321.6 K | 312.51 J/K/mol
322.05 K | 315.53 J/K/mol
322.49 K | 315.5 J/K/mol
322.74 K | 316.33 J/K/mol
322.78 K | 316.4 J/K/mol
323.07 K | 304.17 J/K/mol
323.15 K | 304.37 J/K/mol
323.43 K | 315.9 J/K/mol
323.97 K | 317.18 J/K/mol
324.11 K | 315.95 J/K/mol
